{"source": "paper PMC4072025", "about": "(Cancer chemotherapy and pharmacology, 2013)", "key": {"[1]": {"assay": "Part I dose escalation to define MTD and DLTs of lapatinib plus everolimus", "format": "in vivo, human", "conditions": "once daily po"}, "[2]": {"assay": "Steady-state lapatinib PK in plasma, alone and with everolimus"}, "[3]": {"assay": "Steady-state everolimus PK in whole blood, alone and with lapatinib", "format": "in vivo, human", "conditions": "for Everolimus Tmax % change: p=0.06; for Tmax: Everolimus Tmax, mean (95% CI)"}, "[4]": {"conditions": "Phase I/II trial of everolimus and imatinib; cited from earlier work"}, "[5]": {"conditions": "cited from earlier work"}, "[6]": {"system": "ER-positive breast cancer", "conditions": "ER-positive patients with breast cancer; cited from earlier work"}, "[7]": {"conditions": "Day 19 with everolimus vs Day 7 alone"}, "[8]": {"conditions": "Day 19 with lapatinib vs Day 7 alone"}}, "note": "Entries after “also recorded” stand apart in the source; their conditions may differ."}
{"smiles": "CS(=O)(=O)CCNCc1ccc(-c2ccc3ncnc(Nc4ccc(OCc5cccc(F)c5)c(Cl)c4)c3c2)o1", "note": "[lapatinib]", "values": [{"measurement": "Maximum tolerated dose (MTD) of lapatinib in the combination", "setting": "[1]; combined with everolimus 5 mg", "result": 1250, "unit": "mg"}, {"measurement": "Lapatinib Cmax", "setting": "[2]; Day 19, lapatinib + everolimus, steady state, plasma, mean (95% CI)", "result": "2520 (2020–3130) μg/L"}, {"measurement": "Lapatinib AUC 0-inf % change", "setting": "[2]; [7]", "result": "essentially unchanged"}, {"measurement": "Lapatinib Cmax % change", "setting": "[2]; [7]", "result": "+7%"}, {"measurement": "Lapatinib Tmax % change", "setting": "[2]; [7]", "result": "+33%"}, {"measurement": "Lapatinib AUC 0-inf % change", "setting": "[2]; Day 19 with everolimus vs Day 7 alone, listed as Lapatinib", "result": "+10%"}, {"measurement": "Mean lapatinib Ctrough at steady-state", "setting": "[2]; alone", "result": "800 (95% CI 600–1120) μg/L"}, {"measurement": "AUC", "setting": "[2]; human, plasma, oral", "result": 33900, "unit": "ng·h/mL"}, {"measurement": "AUC", "setting": "[2]; human, plasma, oral, 1250 mg", "result": 37400, "unit": "ng·h/mL"}, {"measurement": "AUC(0-inf)", "setting": "[2]; human, plasma, oral, 1250 mg", "result": 33900, "unit": "ng·h/mL"}, {"measurement": "Mean lapatinib Ctrough at steady-state", "setting": "[2]; in combination with everolimus", "result": "1060 (95% CI 760–1470) μg/L"}, {"measurement": "Differences in steady-state lapatinib PK with or without everolimus co-administration", "setting": "[2]; paired t-test", "result": "no significant influence; also recorded: not statistically significant"}]}
{"smiles": "CO[C@H]1C[C@@H]2CC[C@@H](C)[C@@](O)(O2)C(=O)C(=O)N2CCCC[C@H]2C(=O)O[C@H]([C@H](C)C[C@@H]2CC[C@@H](OCCO)[C@H](OC)C2)CC(=O)[C@H](C)/C=C(\\C)[C@@H](O)[C@@H](OC)C(=O)[C@H](C)C[C@H](C)/C=C/C=C/C=C/1C", "note": "[everolimus]", "values": [{"measurement": "Maximum tolerated dose (MTD) of everolimus in the combination", "setting": "[1]; combined with lapatinib 1250 mg", "result": 5, "unit": "mg"}, {"measurement": "Everolimus AUC 0-inf % change", "setting": "[3]; [8]", "result": "+26%"}, {"measurement": "Everolimus Cmax % change", "setting": "[3]; [8]", "result": "−5", "unit": "%"}, {"measurement": "Everolimus Tmax % change", "setting": "[3]; [8]", "result": 44, "unit": "%"}, {"measurement": "Everolimus Tmax % change", "setting": "[3]; Day 19 with lapatinib vs Day 7 alone, listed as Everolimus", "result": "+44%"}, {"measurement": "Mean everolimus CL/F at steady-state", "setting": "[3]; alone", "result": "19 (95% CI 14–24) L/hr"}, {"measurement": "AUC", "setting": "[3]; human, whole blood, oral, 5 mg", "result": 348, "unit": "ng·h/mL"}, {"measurement": "AUC(0-inf)", "setting": "[3]; human, whole blood, oral, 5 mg", "result": 348, "unit": "ng·h/mL"}, {"measurement": "Cmax", "setting": "[3]; human, whole blood, oral, 5 mg", "result": 37, "unit": "ng/mL"}, {"measurement": "Tmax", "setting": "[3]; human, whole blood, oral, 5 mg, Day 7, everolimus alone", "result": 1.6, "unit": "h"}, {"measurement": "Tmax", "setting": "[3]; human, whole blood, oral, Day 19, everolimus + lapatinib", "result": 2.3, "unit": "h"}, {"measurement": "Mean everolimus CL/F at steady-state", "setting": "[3]; in combination with lapatinib", "result": "14 (95% CI 11–18) L/hr"}, {"measurement": "Decrease of mean everolimus CL/F", "setting": "[3]; in combination with lapatinib vs alone, p=0.08", "result": 25, "unit": "%"}, {"measurement": "PK differences when everolimus was given in combination with lapatinib", "setting": "[3]; paired t-test", "result": "did not reach statistical significance"}, {"measurement": "Increase of everolimus Cmax by imatinib", "setting": "[4]", "result": 2.2, "unit": "fold"}, {"measurement": "Increase of everolimus mean AUC by imatinib", "setting": "[4]", "result": 3.7, "unit": "fold"}, {"measurement": "Systemic exposure to everolimus, higher with erlotinib than without", "setting": "[5]", "result": 17, "unit": "%"}]}
{"smiles": "C#Cc1cccc(Nc2ncnc3cc(OCCOC)c(OCCOC)cc23)c1", "note": "[erlotinib]", "values": [{"measurement": "Pharmacokinetics of erlotinib with or without everolimus", "setting": "[5]", "result": "similar"}]}
{"smiles": "C=C1C[C@@H]2[C@H](CC[C@]3(C)C(=O)CC[C@@H]23)[C@@]2(C)C=CC(=O)C=C12", "note": "[exemestane]", "values": [{"measurement": "Progression-free survival", "setting": "[6]", "result": 2.8, "unit": "months"}]}
